# Test results published in patent publication US20230085307A1, “PYRIDAZINONE COMPOUND AND HERBICIDE” (NISSAN CHEMICAL CORPORATION, priority 2019, published 2023).
# What was measured:
# Italian ryegrass [1] = test: Test Example 5: herbicidal effect by foliage application, plastic box (Table 20, symbol K); format: in vivo, Italian ryegrass (Lolium multiflorum)
# Method in brief: (§1)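 Post-emergence foliar test in sterilized diluvial soil. Compound applied as water-diluted emulsion at a predetermined rate to 14-day-old plants; evaluation at three weeks.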
# green foxtail [2] = test: Test Example 5: herbicidal effect by foliage application, plastic box (Table 20, symbol G); format: in vivo, green foxtail (Setaria viridis)
# Method in brief: as §1
# Chinese sprangletop = test: Test Example 3: herbicidal effect by foliage application, Wagner pot (Table 18, symbol D); format: in vivo, chinese sprangletop (Leptochloa chinensis); conditions: 320 g/ha
# Method in brief: (§2)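 Plants were sown in alluvial soil held under 0.1–0.5 cm standing water and grown 14 days in a greenhouse at 25–30 °C. An emulsifiable formulation, water-diluted to the set dose, was then sprayed onto the foliage, and effects were scored three weeks later using previously defined criteria.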
# green foxtail [3] = test: Test Example 4: herbicidal effect by soil treatment (Table 19, symbol G); format: in vivo, green foxtail (Setaria viridis); conditions: amount of applied herbicide 320 g/ha
# Method in brief: (§3)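 Emulsion of test compound, water-diluted to predetermined amount, sprayed on soil after sowing (seed depth ~1.5 cm, sterilized diluvial soil). Greenhouse, 25–30° C. Effect graded at three weeks post-spray.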
# blackgrass [4] = test: Test Example 4: herbicidal effect by soil treatment (Table 19, symbol J); format: in vivo, blackgrass (Alopecurus myosuroides); conditions: amount of applied herbicide 320 g/ha
# Method in brief: as §3
# wild oat [5] = test: Test Example 4: herbicidal effect by soil treatment (Table 19, symbol I); format: in vivo, wild oat (Avena fatua); conditions: amount of applied herbicide 320 g/ha
# Method in brief: as §3
# lambsquarters [6] = test: Test Example 4: herbicidal effect by soil treatment (Table 19, symbol O); format: in vivo, lambsquarters (Chenopodium album); conditions: amount of applied herbicide 320 g/ha
# Method in brief: as §3
# redroot pigweed [7] = test: Test Example 5: herbicidal effect by foliage application, plastic box (Table 20, symbol N); format: in vivo, redroot pigweed (Amaranthus retroflexus); conditions: amount of applied herbicide 320 g/ha; foliage application after 14-day growth; evaluated three weeks after application
# Method in brief: as §1
# wild oat [8] = test: Test Example 5: herbicidal effect by foliage application, plastic box (Table 20, symbol I); format: in vivo, wild oat (Avena fatua)
# Method in brief: as §1
# velvetleaf [9] = test: Test Example 4: herbicidal effect by soil treatment (Table 19, symbol M); format: in vivo, velvetleaf (Abutilon theophrasti); conditions: amount of applied herbicide 320 g/ha
# Method in brief: as §3
# windgrass [10] = test: Test Example 5: herbicidal effect by foliage application, plastic box (Table 20, symbol L); format: in vivo, windgrass (Apera spica-venti)
# Method in brief: as §1
# southern crabgrass [11] = test: Test Example 5: herbicidal effect by foliage application, plastic box (Table 20, symbol F); format: in vivo, southern crabgrass (Digitaria ciliaris)
# Method in brief: as §1
# southern crabgrass [12] = test: Test Example 4: herbicidal effect by soil treatment (Table 19, symbol F); format: in vivo, southern crabgrass (Digitaria ciliaris); conditions: amount of applied herbicide 320 g/ha
# Method in brief: as §3
# false cleavers = test: Test Example 5: herbicidal effect by foliage application, plastic box (Table 20, symbol Q); format: in vivo, false cleavers (Galium spurium)
# Method in brief: as §1
# blackgrass [13] = test: Test Example 5: herbicidal effect by foliage application, plastic box (Table 20, symbol J); format: in vivo, blackgrass (Alopecurus myosuroides)
# Method in brief: as §1
# windgrass [14] = test: Test Example 4: herbicidal effect by soil treatment (Table 19, symbol L); format: in vivo, windgrass (Apera spica-venti); conditions: amount of applied herbicide 320 g/ha
# Method in brief: as §3
# chickweed [15] = test: Test Example 4: herbicidal effect by soil treatment (Table 19, symbol P); format: in vivo, common chickweed (Stellaria media); conditions: amount of applied herbicide 320 g/ha
# Method in brief: as §3
# redroot pigweed [16] = test: Test Example 4: herbicidal effect by soil treatment (Table 19, symbol N); format: in vivo, redroot pigweed (Amaranthus retroflexus); conditions: amount of applied herbicide 320 g/ha
# Method in brief: as §3
# chickweed [17] = test: Test Example 5: herbicidal effect by foliage application, plastic box (Table 20, symbol P); format: in vivo, common chickweed (Stellaria media); conditions: amount of applied herbicide 320 g/ha; foliage application after 14-day growth; evaluated three weeks after application
# Method in brief: as §1
# barnyard grass [18] = test: Test Example 4: herbicidal effect by soil treatment (Table 19, symbol H); format: in vivo, barnyard grass (Echinochloa crus-galli); conditions: amount of applied herbicide 320 g/ha
# Method in brief: as §3
# rice flat sedge = test: Test Example 3: herbicidal effect by foliage application, Wagner pot (Table 18, symbol E); format: in vivo, rice flat sedge (Cyperus iria); conditions: 320 g/ha
# Method in brief: as §2
# barnyard grass [19] = test: Test Example 5: herbicidal effect by foliage application, plastic box (Table 20, symbol H); format: in vivo, barnyard grass (Echinochloa crus-galli)
# Method in brief: as §1
# velvetleaf [20] = test: Test Example 5: herbicidal effect by foliage application, plastic box (Table 20, symbol M); format: in vivo, velvetleaf (Abutilon theophrasti)
# Method in brief: as §1
# lambsquarters [21] = test: Test Example 5: herbicidal effect by foliage application, plastic box (Table 20, symbol O); format: in vivo, lambsquarters (Chenopodium album); conditions: amount of applied herbicide 320 g/ha; foliage application after 14-day growth; evaluated three weeks after application
# Method in brief: as §1
# barnyard grass [22] = test: Test Example 3: herbicidal effect by foliage application, Wagner pot (Table 18, symbol H); format: in vivo, barnyard grass (Echinochloa crus-galli); conditions: 320 g/ha
# Method in brief: as §2
# Italian ryegrass [23] = test: Test Example 4: herbicidal effect by soil treatment (Table 19, symbol K); format: in vivo, Italian ryegrass (Lolium multiflorum); conditions: amount of applied herbicide 320 g/ha
# Method in brief: as §3
# persian speedwell [24] = test: Test Example 5: herbicidal effect by foliage application, plastic box (Table 20, symbol R); format: in vivo, Persian speedwell (Veronica persica)
# Method in brief: as §1
# persian speedwell [25] = test: Test Example 4: herbicidal effect by soil treatment (Table 19, symbol R); format: in vivo, Persian speedwell (Veronica persica); conditions: amount of applied herbicide 320 g/ha
# Method in brief: as §3
# oval-leafed pondweed = test: Test Example 1: herbicidal activity, application before weed generation under submerged conditions (Table 16, symbol C); format: in vivo, oval-leafed pondweed (Monochoria vaginalis); conditions: amount of applied herbicide 320 g/ha
# Method in brief: (§4)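 Alluvial soil was flooded to 4 cm depth, weed seeds were sown mixed and 2.5-leaf rice seedlings were transplanted. On sowing day, the compound's emulsion, diluted in water to a set dose, was applied to the water surface. Plants grew at 25–30 °C and were scored 0–5 after three weeks.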
# late watergrass = test: Test Example 1: herbicidal activity, application before weed generation under submerged conditions (Table 16, symbol A); format: in vivo, late watergrass (Echinochloa oryzicola); conditions: amount of applied herbicide 320 g/ha
# Method in brief: as §4
# Japanese bulrush = test: Test Example 1: herbicidal activity, application before weed generation under submerged conditions (Table 16, symbol B); format: in vivo, Japanese bulrush (Schoenoplectus juncoides); conditions: amount of applied herbicide 320 g/ha
# Method in brief: as §4
# [26] = amount of applied herbicide 320 g/ha, foliage application after 14-day growth, evaluated three weeks after application
# [27] = foliage application, 320 g/ha, three weeks after application
compound,measurement,setting,value
COc1ccc(-c2sc3cc(F)c(F)cc3c2-c2c(O)c(C)nn(C)c2=O)cc1 [5-014],"Herbicidal effect by foliage application, K: Italian ryegrass",Italian ryegrass [1]; [26],4 (Herbicidal rate of 70% or more and less than 90%)
same,"Herbicidal effect by foliage application, G: green foxtail",green foxtail [2]; [26],2 (Herbicidal rate of 20% or more and less than 40%)
same,herbicidal effect on Chinese sprangletop (D),Chinese sprangletop,0 (Herbicidal rate of 5% or less (almost no effect))
same,"G: green foxtail, herbicidal effect grade",green foxtail [3],1 (Herbicidal rate of 5% or more and less than 20%)
same,"J: blackgrass, herbicidal effect grade",blackgrass [4],0 (Herbicidal rate of 5% or less (almost no effect))
same,"I: wild oat, herbicidal effect grade",wild oat [5],0 (Herbicidal rate of 5% or less (almost no effect))
same,"O: lambsquarters, herbicidal effect grade",lambsquarters [6],5 (Herbicidal rate of 90% or more (almost completely withered))
same,"Herbicidal effect by foliage application, N: redroot pigweed",redroot pigweed [7],5 (Herbicidal rate of 90% or more (almost completely withered))
same,"Herbicidal effect by foliage application, I: wild oat",wild oat [8]; [26],0 (Herbicidal rate of 5% or less (almost no effect))
same,"M: velvetleaf, herbicidal effect grade",velvetleaf [9],4 (Herbicidal rate of 70% or more and less than 90%)
same,"Herbicidal effect by foliage application, L: windgrass",windgrass [10]; [26],0 (Herbicidal rate of 5% or less (almost no effect))
same,"Herbicidal effect by foliage application, F: southern crabgrass",southern crabgrass [11]; [26],3 (Herbicidal rate of 40% or more and less than 70%)
same,"F: southern crabgrass, herbicidal effect grade",southern crabgrass [12],0 (Herbicidal rate of 5% or less (almost no effect))
same,"Herbicidal effect by foliage application, Q: false cleavers",false cleavers; [26],4 (Herbicidal rate of 70% or more and less than 90%)
same,"Herbicidal effect by foliage application, J: blackgrass",blackgrass [13]; [26],0 (Herbicidal rate of 5% or less (almost no effect))
same,"L: windgrass, herbicidal effect grade",windgrass [14],0 (Herbicidal rate of 5% or less (almost no effect))
same,"P: chickweed, herbicidal effect grade",chickweed [15],3 (Herbicidal rate of 40% or more and less than 70%)
same,"N: redroot pigweed, herbicidal effect grade",redroot pigweed [16],5 (Herbicidal rate of 90% or more (almost completely withered))
same,"Herbicidal effect by foliage application, P: chickweed",chickweed [17],5 (Herbicidal rate of 90% or more (almost completely withered))
same,"H: barnyard grass, herbicidal effect grade",barnyard grass [18],2 (Herbicidal rate of 20% or more and less than 40%)
same,herbicidal effect on rice flat sedge (E),rice flat sedge,5 (Herbicidal rate of 90% or more (almost completely withered))
same,"Herbicidal effect by foliage application, H: barnyard grass",barnyard grass [19]; [26],2 (Herbicidal rate of 20% or more and less than 40%)
same,"Herbicidal effect by foliage application, M: velvetleaf",velvetleaf [20]; [26],5 (Herbicidal rate of 90% or more (almost completely withered))
same,"Herbicidal effect by foliage application, O: lambsquarters",lambsquarters [21],5 (Herbicidal rate of 90% or more (almost completely withered))
same,herbicidal effect on barnyard grass (H),barnyard grass [22],4 (Herbicidal rate of 70% or more and less than 90%)
same,"K: Italian ryegrass, herbicidal effect grade",Italian ryegrass [23],0 (Herbicidal rate of 5% or less (almost no effect))
same,"Herbicidal effect by foliage application, R: persian speedwell",persian speedwell [24]; [26],5 (Herbicidal rate of 90% or more (almost completely withered))
same,"R: persian speedwell, herbicidal effect grade",persian speedwell [25],5 (Herbicidal rate of 90% or more (almost completely withered))
COc1cc2sc(-c3ccccc3)c(-c3c(O)c(C)nn(C)c3=O)c2cc1OC [5-055],herbicidal effect on Italian ryegrass (K),Italian ryegrass [1]; [27],4 (Herbicidal rate of 70% or more and less than 90%)
same,herbicidal effect on green foxtail (G),green foxtail [2]; [27],0 (Herbicidal rate of 5% or less (almost no effect))
same,herbicidal effect on Chinese sprangletop (D),Chinese sprangletop,0 (Herbicidal rate of 5% or less (almost no effect))
same,herbicidal effect on wild oat (I),wild oat [8]; [27],0 (Herbicidal rate of 5% or less (almost no effect))
same,"Herbicidal effect, C: oval-leafed pondweed",oval-leafed pondweed,0 (Herbicidal rate of 5% or less (almost no effect))
same,herbicidal effect on windgrass (L),windgrass [10]; [27],0 (Herbicidal rate of 5% or less (almost no effect))
same,herbicidal effect on southern crabgrass (F),southern crabgrass [11]; [27],0 (Herbicidal rate of 5% or less (almost no effect))
same,"Herbicidal effect, A: late watergrass",late watergrass,2 (Herbicidal rate of 20% or more and less than 40%)
same,"Herbicidal effect, B: Japanese bulrush",Japanese bulrush,0 (Herbicidal rate of 5% or less (almost no effect))
same,herbicidal effect on false cleavers (Q),false cleavers; [27],0 (Herbicidal rate of 5% or less (almost no effect))
same,herbicidal effect on blackgrass (J),blackgrass [13]; [27],0 (Herbicidal rate of 5% or less (almost no effect))
same,herbicidal effect on rice flat sedge (E),rice flat sedge,3 (Herbicidal rate of 40% or more and less than 70%)
same,herbicidal effect on barnyard grass (H),barnyard grass [19]; [27],0 (Herbicidal rate of 5% or less (almost no effect))
same,herbicidal effect on velvetleaf (M),velvetleaf [20]; [27],2 (Herbicidal rate of 20% or more and less than 40%)
same,herbicidal effect on barnyard grass (H),barnyard grass [22],1 (Herbicidal rate of 5% or more and less than 20%)
same,herbicidal effect on persian speedwell (R),persian speedwell [24]; [27],4 (Herbicidal rate of 70% or more and less than 90%)
